Laboratory results from patent publication US20050096456A1, “Compounds comprising pseudo-amino acids” (priority 2002, published 2005).
Like-named read-outs stand apart in the source and are kept apart here. Residues, ends and D or L forms follow the SMILES beside them. *: point of attachment. Myristoyl = CCCCCCCCCCCCCC(=O)*

Assay: Solubility of the lyophilised peptide
Format: physicochemical
Method: The crude peptide was desalted via gel filtration (Sephadex G10, 0.1% TFA in water) before purification by preparative C18 Vydac) high performance liquid chromatography (HPLC) using 0.1% trifluoroacetic acid and 0.1% trifluoroacetic acid/90% acetonitrile as gradient components. After lyophilisation, the peptide was a white amorphous powder, soluble to at least 10 mg/mL in both dimethylsulfoxide and water. Fast atom bombardment spectrometry gave a main peak at 2101 amu corresponding to the molecular ion of the peptide.

solubility (in dimethylsulfoxide, read-out: solubility in dimethylsulfoxide): ≥ 10000 µg/mL
solubility (in water, read-out: solubility in water): ≥ 10000 µg/mL
SMILES: CCCCCCCCCCCCCC(=O)NCC(=O)N[C@@H](CO)C(=O)N[C@@H](CO)C(=O)N[C@@H](CCCCN)C(=O)N[C@@H](CO)C(=O)N1CCC[C@H]1C(=O)N[C@@H](CO)C(=O)N[C@@H](CCCCN)C(=O)N[C@@H](CCCCN)C(=O)N[C@@H](CC(=O)O)C(=O)N[C@@H](CC(=O)O)C(=O)N[C@@H](CCCCN)C(=O)N[C@@H](CCCCN)C(=O)N1CCC[C@H]1C(=O)NCC(=O)N[C@@H](CC(=O)O)C(=O)N[C@@H](CCCCNC(=O)[C@@H](N)CS)C(N)=O [MSWP2278, Myristoyl-Gly-Ser-Ser-Lys-Ser-Pro-Ser-Lys-Lys-Asp-Asp-Lys-Lys-Pro-Gly-Asp-(E-amino-cysteinyl carboxamide)-Lys-NH2] (Myristoyl-GSSKSPSKKDDKKPGDK(Cys)-NH2)
